Source: paper PMC6937593, “Anti-metastatic Inhibitors of Lysyl Oxidase (LOX): Design and Structure–Activity Relationships” (Journal of Medicinal Chemistry, 2019)

How the values were obtained:
[1] = biological target: T1, LOX (Sus scrofa, UniProt P45845); experiment: LOX enzyme activity assay (HRP-coupled fluorescent, cadaverine substrate); format: biochemical, pig;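 note: LOX isolated from porcine skin, nine-point dilution series starting at 100 µM, 20 min preincubation with enzyme, BAPN serving as positive control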
T1 construct: LOX enzyme was extracted from pig skin by the method of Shackleton and Hulmes; from tissue; host or cells: pig skin
T1 sequence (P45845 1-249): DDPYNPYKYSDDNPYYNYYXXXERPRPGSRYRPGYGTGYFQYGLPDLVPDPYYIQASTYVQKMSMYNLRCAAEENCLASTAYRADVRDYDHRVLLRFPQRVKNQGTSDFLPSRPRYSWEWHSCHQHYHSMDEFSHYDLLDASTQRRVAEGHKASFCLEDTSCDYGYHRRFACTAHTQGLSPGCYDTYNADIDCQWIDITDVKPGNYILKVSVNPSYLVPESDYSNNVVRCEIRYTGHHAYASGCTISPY
Method: LOX enzyme was extracted from pig skin by the method of Shackleton and Hulmes.[24] LOX catalytic activity was determined using a horseradish peroxidase (HRP)-coupled fluorescent assay previously described,[19] with cadaverine hydrochloride as a substrate, BAPN as positive control, and a preincubation time of 20 min with nine dilutions from a top concentration of 100 μM.

[2] = biological target: T2, DAO (Sus scrofa, UniProt Q9TRC7); experiment: biochemical; details: n = 2 individual values
T2 construct: purchased Sigma
T2 sequence (Q9TRC7 25-755): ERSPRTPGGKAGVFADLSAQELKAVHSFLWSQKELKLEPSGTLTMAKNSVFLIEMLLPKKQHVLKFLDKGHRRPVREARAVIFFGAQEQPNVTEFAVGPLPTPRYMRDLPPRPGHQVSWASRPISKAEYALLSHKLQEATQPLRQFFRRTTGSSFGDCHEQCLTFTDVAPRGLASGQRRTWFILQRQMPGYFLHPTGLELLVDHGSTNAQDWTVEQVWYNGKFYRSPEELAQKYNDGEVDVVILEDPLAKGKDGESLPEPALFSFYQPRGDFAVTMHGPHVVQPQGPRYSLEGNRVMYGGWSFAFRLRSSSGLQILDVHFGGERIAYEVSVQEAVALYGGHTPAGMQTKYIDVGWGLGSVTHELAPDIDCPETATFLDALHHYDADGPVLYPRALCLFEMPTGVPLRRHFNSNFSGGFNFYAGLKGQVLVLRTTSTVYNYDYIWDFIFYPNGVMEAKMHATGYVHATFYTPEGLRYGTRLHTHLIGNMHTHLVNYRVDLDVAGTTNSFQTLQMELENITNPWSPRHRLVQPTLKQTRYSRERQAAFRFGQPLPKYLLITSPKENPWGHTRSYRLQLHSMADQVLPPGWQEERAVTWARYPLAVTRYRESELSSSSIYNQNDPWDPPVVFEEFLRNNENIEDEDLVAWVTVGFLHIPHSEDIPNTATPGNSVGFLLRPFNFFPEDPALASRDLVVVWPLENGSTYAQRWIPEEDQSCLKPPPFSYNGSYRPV
Method: (§1) All amine oxidase assays were performed with concentrations as above. MAO-A and MAO-B enzymes were purchased from Promega and Sigma, respectively. The catalytic activity of MAO-A and MAO-B was determined using the Promega MAO-Glo assay kit (substrate included), with clorgyline and deprenyl as positive controls, respectively. DAO was purchased from Sigma and the catalytic activity was determined using the Promega ROS-Glo assay kit, with aminoguanidine as the positive control.

[3] = biological target: T3, MAO-B (Homo sapiens, UniProt P27338); experiment: MAO-B assay (MAO-Glo); format: biochemical; details: n = 2 individual values
T3 construct: purchased Sigma
T3 sequence (P27338 1-520): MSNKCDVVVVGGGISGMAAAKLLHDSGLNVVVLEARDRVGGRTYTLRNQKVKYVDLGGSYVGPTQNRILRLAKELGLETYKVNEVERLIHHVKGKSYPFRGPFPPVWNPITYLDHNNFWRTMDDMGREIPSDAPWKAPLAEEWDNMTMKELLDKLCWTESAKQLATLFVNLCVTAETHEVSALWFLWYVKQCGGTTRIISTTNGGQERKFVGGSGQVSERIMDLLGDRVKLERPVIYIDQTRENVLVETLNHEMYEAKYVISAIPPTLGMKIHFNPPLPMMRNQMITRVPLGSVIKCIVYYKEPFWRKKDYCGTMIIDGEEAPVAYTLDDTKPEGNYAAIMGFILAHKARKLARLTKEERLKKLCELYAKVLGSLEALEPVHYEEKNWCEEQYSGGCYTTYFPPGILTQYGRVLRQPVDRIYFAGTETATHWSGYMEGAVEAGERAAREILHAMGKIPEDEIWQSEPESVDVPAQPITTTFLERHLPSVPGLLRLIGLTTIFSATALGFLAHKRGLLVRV
Method: as §1

[4] = Caco-2 permeability assay; format: in vitro ADME; details: human
[5] = MLM stability assay; format: in vitro ADME, mouse; details: percentage of compound remaining after 30 min; 10 μM
Method: Mouse liver microsomes (BALB/c) were purchased from Tebu-bio, and the assay was performed by methods previously described.[19] Inhibitors at 10 μM concentration incubated with the microsomes were assessed at 0, 15, and 30 min. Control samples containing no microsomes and no cofactors were also assessed at 0 and 30 min. Samples were extracted by protein precipitation and centrifugation for 20 min in a refrigerated centrifuge (4 °C) at 3700 rpm. The supernatant was analyzed by LCMS/MS for % metabolized over time.

[6] = In vivo PK in mice; parameters: species or system mouse; details: for AUC(PO) / Cmax: mouse plasma, single oral gavage dose 50 mg/kg
Method: Female BALB/c or CD1 mice (Charles River Laboratories) at 6 weeks of age were used for the PK analyses. The mice were dosed orally by gavage (50 mg/kg in dimethyl sulfoxide (DMSO)/water 1:19 v/v; n = 21) or intravenously in the tail vein (10 mg/kg in DMSO/Tween20/saline 10:1:89 v/v/v; n = 24). […] Three mice were used per time point per route. They were placed under halothane or isoflurane anesthesia, and blood for plasma preparation was taken by terminal cardiac puncture into heparinized syringes. Plasma samples were snap-frozen in liquid nitrogen and then stored at −80 °C prior to analysis.

Row | Structure (SMILES) | LOX inhibition (in words) [1] | IC50 [2] [µM] | IC50 [3] [µM] | Papp A→B ([4]; A → B) [×10⁻⁶ cm/s] | Papp B→A ([4]; B → A) [×10⁻⁶ cm/s] | MLM stability (%) [5] [%] | AUC(PO) [6] [µM·h] | Cmax [6] [µM] | F (oral bioavailability) ([6]; mouse, PO 50 mg/kg vs IV 10 mg/kg) [%] | CL(IV) ([6]; mouse, intravenous 10 mg/kg) [mL/min/kg] | t1/2(IV) ([6]; mouse, intravenous 10 mg/kg) [min]
1 | Cc1ccc(-c2cc(S(=O)(=O)c3ccc(CN)s3)ccc2S(C)(=O)=O)cc1.Cl [9l, (5-((4′-Methyl-6-(methylsulfonyl)-[1,1′-biphenyl]-3-yl)sulfonyl)thiophen-2-yl)methanamine Hydrochloride] | sub-micromolar | > 100 | > 100 | 18 | 25 | 95 | 12 | 9.4 | 74 | 106 | 24
2 | CS(=O)(=O)c1cc(-c2ccccc2)cc(S(=O)(=O)c2ccc(CN)s2)c1 [9f] |  | > 100 |  |  |  |  |  |  |  |  | 
3 | CC(C)(C)c1cc(S(C)(=O)=O)cc(S(=O)(=O)c2ccc(CN)s2)c1 [9a, (5-((3-(tert-Butyl)-5-(methylsulfonyl)phenyl)sulfonyl)thiophen-2-yl)methanamine] |  |  |  |  |  | 68 | 6.5 | 16 |  |  | 
